Target: recombinant human JNK (JNK1, JNK2)
Assay: JNK inhibitory activity, enzyme assay (phosphorylation of biotinylated ATF2, Alpha Screen detection)
Assay type: biochemical
Settings: JNK isoform not stated
Method: 5 μL of kinase buffer (25 mM Tris-HCl (pH 7.5), 5 mM β-glycerophosphoric acid, 2 mM dithiothreitol, 0.1 mM Na3VO4, 10 mM MgCl2) including recombinant human JNK (JNK1: Upstate Biotechnology #14-327, JNK2: Upstate Biotechnology #14-329) was added to well of 384-well plate for fluorescence assay (5 μL) (JNK1: 20 μU/well, JNK2: 50 μU/well). Then, kinase buffer including the compound of the present invention was added into it to carry out incubation for 20 minutes at room temperature. Subsequently, substrate mixture prepared with kinase buffer [biotinylated ATF2 (5 μg/mL) (Upstate Biotechnology #14-432), adenosine triphosphate (JNK1 activity measurement: 2 μmol/L, JNK2 activity measurement: 5 μmol/L) (Cell Signaling Technology #9804), anti-phosphorylated ATF2 antibody (20-fold dilution) (Cell Signaling Technology #9221L)] was added to carry out enzyme reaction for 30 minutes at 30° C. […] The amount of complex between phosphorylated ATF2 and anti-phosphorylated ATF2 was measured with Alpha Screen™ Rabbit Detection Kit (Packard #6760607).
JNK inhibitory activity which is the effect of the compound of the present invention was calculated as inhibition ratio (%) by the following equation: Inhibition ratio(%)=[(AC−AX)/(Ac−AB)]×100
AB: measured value without enzyme;
AC: measured value with enzyme and without a test compound;
AX: measured value with enzyme and a test compound

Compound | IC50 [nM]
COc1cc(CNc2cc(-c3ccsc3)nc3ccnn23)cc(OC)c1OC [Example 3, 5-thien-3-yl-N-(3,4,5-trimethoxybenzyl)pyrazolo[1,5-a]pyrimidin-7-amine] | 740
Clc1cc(NCc2ccc3c(c2)OCO3)n2nccc2n1 [Example 1(1), N-(1,3-benzodioxol-5-ylmethyl)-5-chloropyrazolo[1,5-a]pyrimidin-7-amine] | 330
